Laboratory results: patent US12473298B2, “Amide compounds, preparation method therefor, and use thereof in the medical field” (Shanghai Synergy Pharmaceutical Sciences Co., Ltd., priority 2019, dated 2025)
Where two headings read alike, the source gives them in different places.

Columns and labels:
[1] = molecular target: Mutant type EZH2(Y641N) (Homo sapiens (Human), UniProt Q15910, Y641N); assay: AlphaLISA, mutant type PRC2 complex EZH2(Y641N); type: biochemical; conditions: read-out: Mutant type EZH2(Y641N) IC50 Nanomoles per Liter
Sequence of Mutant type EZH2(Y641N) (Q15910 whole entry Y641N): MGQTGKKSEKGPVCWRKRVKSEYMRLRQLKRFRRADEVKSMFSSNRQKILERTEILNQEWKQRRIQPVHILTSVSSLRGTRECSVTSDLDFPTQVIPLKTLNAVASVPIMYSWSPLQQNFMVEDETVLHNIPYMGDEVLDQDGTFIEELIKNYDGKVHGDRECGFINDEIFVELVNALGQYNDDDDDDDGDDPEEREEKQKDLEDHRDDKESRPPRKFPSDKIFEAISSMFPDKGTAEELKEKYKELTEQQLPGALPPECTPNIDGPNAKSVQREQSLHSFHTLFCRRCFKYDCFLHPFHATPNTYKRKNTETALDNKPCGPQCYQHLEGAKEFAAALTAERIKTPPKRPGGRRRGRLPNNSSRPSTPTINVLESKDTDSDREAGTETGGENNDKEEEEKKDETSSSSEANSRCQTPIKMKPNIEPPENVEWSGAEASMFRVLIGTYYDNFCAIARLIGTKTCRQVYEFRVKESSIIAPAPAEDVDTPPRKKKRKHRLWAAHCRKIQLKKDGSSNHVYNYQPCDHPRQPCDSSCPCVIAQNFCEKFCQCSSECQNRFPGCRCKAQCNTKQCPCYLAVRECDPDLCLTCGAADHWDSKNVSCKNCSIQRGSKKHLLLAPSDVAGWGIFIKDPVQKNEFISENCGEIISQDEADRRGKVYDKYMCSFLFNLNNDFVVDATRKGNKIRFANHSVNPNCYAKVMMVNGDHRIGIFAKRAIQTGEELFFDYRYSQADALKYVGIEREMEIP
Sequence of Mutant type EZH2(Y641N) (O75530 whole entry partner): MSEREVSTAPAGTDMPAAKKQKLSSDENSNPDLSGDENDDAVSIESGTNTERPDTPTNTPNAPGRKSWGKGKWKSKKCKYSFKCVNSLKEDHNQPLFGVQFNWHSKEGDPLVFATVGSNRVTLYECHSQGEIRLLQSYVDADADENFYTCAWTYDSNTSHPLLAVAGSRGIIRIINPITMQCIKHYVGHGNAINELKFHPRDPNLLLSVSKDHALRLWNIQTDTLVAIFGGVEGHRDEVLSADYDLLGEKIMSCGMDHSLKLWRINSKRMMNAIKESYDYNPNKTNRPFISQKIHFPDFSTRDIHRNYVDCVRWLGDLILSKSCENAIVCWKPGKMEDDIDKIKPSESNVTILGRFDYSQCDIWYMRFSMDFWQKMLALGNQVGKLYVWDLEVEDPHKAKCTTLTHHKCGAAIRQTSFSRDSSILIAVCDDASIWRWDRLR
Sequence of Mutant type EZH2(Y641N) (Q15022 whole entry partner): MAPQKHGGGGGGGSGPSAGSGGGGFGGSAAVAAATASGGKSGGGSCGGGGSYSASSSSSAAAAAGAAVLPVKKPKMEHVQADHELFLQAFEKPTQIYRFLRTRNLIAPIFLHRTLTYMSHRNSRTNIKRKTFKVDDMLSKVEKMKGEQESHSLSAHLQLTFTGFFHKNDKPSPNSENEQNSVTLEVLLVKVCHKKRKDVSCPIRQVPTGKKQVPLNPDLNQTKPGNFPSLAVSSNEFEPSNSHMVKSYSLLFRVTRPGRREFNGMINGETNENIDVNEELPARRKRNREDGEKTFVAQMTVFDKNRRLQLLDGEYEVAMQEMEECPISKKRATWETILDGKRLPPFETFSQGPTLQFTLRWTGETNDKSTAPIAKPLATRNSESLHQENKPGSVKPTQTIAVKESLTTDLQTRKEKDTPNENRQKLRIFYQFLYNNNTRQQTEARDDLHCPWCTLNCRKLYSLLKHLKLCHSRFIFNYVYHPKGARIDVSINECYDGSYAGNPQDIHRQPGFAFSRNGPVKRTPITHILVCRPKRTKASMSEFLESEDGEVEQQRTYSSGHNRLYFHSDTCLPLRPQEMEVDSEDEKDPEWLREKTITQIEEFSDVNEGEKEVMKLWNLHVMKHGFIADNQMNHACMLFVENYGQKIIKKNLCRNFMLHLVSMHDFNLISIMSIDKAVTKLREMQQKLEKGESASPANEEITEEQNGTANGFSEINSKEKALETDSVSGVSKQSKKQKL
Sequence of Mutant type EZH2(Y641N) (Q09028 whole entry partner): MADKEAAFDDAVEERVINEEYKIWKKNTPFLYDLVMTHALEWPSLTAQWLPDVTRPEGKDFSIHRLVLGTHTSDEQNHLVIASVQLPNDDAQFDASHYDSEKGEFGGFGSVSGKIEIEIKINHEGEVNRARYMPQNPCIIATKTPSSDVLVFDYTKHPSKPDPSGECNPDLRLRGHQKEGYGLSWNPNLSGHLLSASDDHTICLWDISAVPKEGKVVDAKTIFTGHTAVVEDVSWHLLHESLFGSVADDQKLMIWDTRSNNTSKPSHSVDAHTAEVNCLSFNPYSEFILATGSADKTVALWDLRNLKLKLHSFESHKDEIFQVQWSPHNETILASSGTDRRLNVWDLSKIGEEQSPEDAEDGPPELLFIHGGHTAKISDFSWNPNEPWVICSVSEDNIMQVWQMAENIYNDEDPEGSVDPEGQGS
Sequence of Mutant type EZH2(Y641N) (Q6ZN18 whole entry partner): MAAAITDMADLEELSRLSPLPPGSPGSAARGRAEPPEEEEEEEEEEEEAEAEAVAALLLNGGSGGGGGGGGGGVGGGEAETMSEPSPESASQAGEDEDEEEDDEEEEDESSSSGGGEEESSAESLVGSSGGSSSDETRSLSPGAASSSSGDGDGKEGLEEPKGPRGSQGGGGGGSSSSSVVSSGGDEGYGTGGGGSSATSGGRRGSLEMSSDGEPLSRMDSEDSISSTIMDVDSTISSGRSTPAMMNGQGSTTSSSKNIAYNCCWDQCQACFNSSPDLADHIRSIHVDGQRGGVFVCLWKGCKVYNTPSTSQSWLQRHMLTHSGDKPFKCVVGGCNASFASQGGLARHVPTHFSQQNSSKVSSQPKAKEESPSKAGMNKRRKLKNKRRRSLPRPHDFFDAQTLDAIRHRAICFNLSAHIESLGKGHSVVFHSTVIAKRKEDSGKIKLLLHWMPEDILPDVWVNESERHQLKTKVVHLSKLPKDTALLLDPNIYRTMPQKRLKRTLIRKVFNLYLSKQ

[2] = system: human diffuse large cell lymphoma B lymphocytes (Pfeiffer cell); assay: Pfeiffer cell proliferation, Calcein AM staining; type: cell-based; conditions: Homo sapiens, Pfeiffer; data of 14th day; read-out: Pfeiffer Proliferation IC50 Nanomoles per Liter
Text: The diffuse large cell lymphoma B lymphocytes (Pfeiffer cells) were collected and counted when growing well.

[3] = system: human diffuse large B-cell lymphoma cells (Karpas 422 cell); assay: Karpas 422 cell proliferation, Calcein AM staining; type: cell-based; conditions: Homo sapiens, KARPAS-422; data of 14th day; read-out: Karpas422 Proliferation IC50 Nanomoles per Liter
[4] = molecular target: wild-type EZH2 (Homo sapiens (Human), UniProt Q15910); assay: radiometric assay, activity to wild-type EZH2 of PRC2; conditions: read-out: Wild-type EZH2 IC50 Nanomoles per Liter
Sequence of wild-type EZH2 (Q15910 whole entry): as the sequence (Q15910 whole entry Y641N) above, with N641Y counted along it
Sequence of wild-type EZH2 (O75530 whole entry partner): as the sequence (O75530 whole entry partner) above
Sequence of wild-type EZH2 (Q15022 whole entry partner): as the sequence (Q15022 whole entry partner) above
Method: 25 μL of reaction solution was transferred to a scintillation plate, which was incubated at room temperature for 1 hour (h) and washed with deionized water and 0.1% Tween 20 for three times. A PerkinElmer liquid scintillation/luminescence counter was used to read the value, and GraphPad Prism 5 was used to calculate the median inhibitory concentration (IC50) of the compounds.

[5] = molecular target: Mutant type EZH2(Y641F) (Homo sapiens (Human), UniProt Q15910, Y641F); assay: AlphaLISA, mutant type PRC2 complex EZH2(Y641F); type: biochemical; conditions: read-out: Mutant type EZH2(Y641F) IC50 Nanomoles per Liter
Sequence of Mutant type EZH2(Y641F) (Q15910 whole entry Y641F): as the sequence (Q15910 whole entry Y641N) above, with N641F counted along it
Sequence of Mutant type EZH2(Y641F) (O75530 whole entry partner): as the sequence (O75530 whole entry partner) above
Sequence of Mutant type EZH2(Y641F) (Q15022 whole entry partner): as the sequence (Q15022 whole entry partner) above
Sequence of Mutant type EZH2(Y641F) (Q09028 whole entry partner): as the sequence (Q09028 whole entry partner) above
Sequence of Mutant type EZH2(Y641F) (Q6ZN18 whole entry partner): as the sequence (Q6ZN18 whole entry partner) above

[6] = molecular target: Mutant type EZH2(A677G) (Homo sapiens (Human), UniProt Q15910, A677G); assay: AlphaLISA, mutant type PRC2 complex EZH2(A677G); type: biochemical; conditions: read-out: Mutant type EZH2(A677G) IC59 Nanomoles per Liter
Sequence of Mutant type EZH2(A677G) (Q15910 whole entry A677G): as the sequence (Q15910 whole entry Y641N) above, with N641Y, A677G counted along it
Sequence of Mutant type EZH2(A677G) (O75530 whole entry partner): as the sequence (O75530 whole entry partner) above
Sequence of Mutant type EZH2(A677G) (Q15022 whole entry partner): as the sequence (Q15022 whole entry partner) above
Sequence of Mutant type EZH2(A677G) (Q09028 whole entry partner): as the sequence (Q09028 whole entry partner) above
Sequence of Mutant type EZH2(A677G) (Q6ZN18 whole entry partner): as the sequence (Q6ZN18 whole entry partner) above

[7] = Pharmacokinetic experiment in rats; type: in vivo, SD rats; conditions: for AUC: read-out: Area Curve (AUC, ng/mL · h)
Method: A certain amount of compound was weighted and dissolved in 0.1% Tween under vortex and ultrasound, and 0.5% carboxymethyl cellulose sodium (CMC-NA) solution was added to form a uniform solution.

SMILES | IC50 [1] | IC50 [2] | IC50 [3] | IC50 [4] | IC50 [5] | IC50 [6] | AUC ([7]; male, SD, rat, plasma, rats, Intravenous-Dose 4 mg/kg) | half-life ([7]; male, SD, rat, plasma; rats, Intravenous-Dose 4 mg/kg; read-out: Half life T1/2, h) (converted)) | AUC ([7]; male, SD, rat, plasma, rats, Oral-Dose 20 mg/kg) | Cmax ([7]; male, SD, rat, plasma, rats, Oral-Dose 20 mg/kg, read-out: Blood Drug level (Cmax, ng/mL)) | bioavailability ([7]; male, SD, rat, plasma, rats, oral 20 mg/kg vs intravenous 4 mg/kg, read-out: Bioavailability (P %))
CCN(c1cc(-c2ccc3c(c2)NC(=O)C32CCOCC2)cc(C(=O)NCc2c(C)cc(C)[nH]c2=O)c1C)C1CCS(=O)(=O)CC1 [Example 96, N-((4,6-Dimethyl-2-oxo-1,2-dihydropyridin-3-yl)methyl)-3-((ethyl)(1,1-dioxotetrahydro-2H-thiapyran-4-yl)amino)-2-methyl-5-(2-oxo-2′,3′,5′,6′-tetrahydrospiro[dihydroindole-3,4′-pyran]-6-yl)benzamide] |  | 3.63 nM | 4.57 nM | 1.24 nM | 0.88 nM | 0.57 nM | 990 ng·h/mL | 1.64 h | 1540 ng·h/mL | 436 ng/mL | 31.1%
CCN(c1cc(-c2ccc3c(c2)CCC2(CCOCC2)C3=O)cc(C(=O)NCc2c(C)cc(C)[nH]c2=O)c1C)C1CCOCC1 [Example 106, N-((4,6-Dimethyl-2-oxo-1,2-dihydropyridin-3-yl)methyl)-3-(ethyl(tetrahydro-2H-pyran-4-yl)amino)-2-methyl-5-(1-oxo-2′,3,3′,4,5′,6′-hexahydro-1H-spiro[naphthalene-2,4′-pyran]-6-yl)benzamide] |  | 3.41 nM | 3.89 nM | 0.98 nM | 0.82 nM | 0.71 nM |  |  |  |  | 
CCN(c1cc(-c2ccc3c(c2)C(=O)C2(CCN(C)CC2)C3)cc(C(=O)NCc2c(C)cc(C)[nH]c2=O)c1C)C1CCOCC1 [Example 107, N-((4,6-Dimethyl-2-oxo-1,2-dihydropyridin-3-yl)methyl)-3-(ethyl(tetrahydro-2H-pyran-4-yl)amino)-2-methyl-5-(1′-methyl-1-oxo-1,3-dihydrospiro[indene-2,4′-piperidine]-6-yl)benzamide] |  | 4.38 nM | 5.76 nM | 1.03 nM | 0.86 nM | 0.67 nM |  |  |  |  | 
CCN(c1cc(-c2ccc3c(c2)NC(=O)C32CCNCC2)cc(C(=O)NCc2c(C)cc(C)[nH]c2=O)c1C)C1CCNCC1 [Example 117, N-((4,6-dimethyl-2-oxo-1,2-dihydropyridin-3-yl)methyl)-3-(ethyl(piperidin-4-yl)amino)-2-methyl-5-(2-oxospiro[indole-3,4′-piperidine]-6-yl)benzamide] |  | 2.31 nM | 3.57 nM | 1.08 nM | 0.94 nM | 0.61 nM |  |  |  |  | 

Second part, the compound after the results:

IC50 [1] | IC50 [2] | IC50 [3] | IC50 [4] | IC50 [5] | IC50 [6] | AUC ([7]; male, SD, rat, plasma, rats, Intravenous-Dose 4 mg/kg) | half-life ([7]; male, SD, rat, plasma; rats, Intravenous-Dose 4 mg/kg; read-out: Half life T1/2, h) (converted)) | AUC ([7]; male, SD, rat, plasma, rats, Oral-Dose 20 mg/kg) | Cmax ([7]; male, SD, rat, plasma, rats, Oral-Dose 20 mg/kg, read-out: Blood Drug level (Cmax, ng/mL)) | bioavailability ([7]; male, SD, rat, plasma, rats, oral 20 mg/kg vs intravenous 4 mg/kg, read-out: Bioavailability (P %)) | SMILES
0.3 nM | 2.78 nM | 3.09 nM | 1.1 nM |  |  |  |  |  |  |  | CCN(c1cc(-c2cc3c(cc2F)C2(CCOCC2)CC3)cc(C(=O)NCc2c(OC)cc(C)[nH]c2=O)c1C)C1CCOCC1 [Example 17, 3-(ethyl(tetrahydro-2H-pyran-4-yl)amino)-5-(6-fluoro-2,2′,3,3′,5′,6′-hexahydrospiro[indene-1,4′-pyran]-5-yl)-N-((4-methoxy-6-methyl-2-carbonyl-1,2-dihydropyridin-3-yl)methyl)-2-methylbenzamide]
0.23 nM | 1.89 nM | 2.21 nM | 0.81 nM |  |  |  |  |  |  |  | CCN(c1cc(-c2ccc3c(c2)C(=O)C2(CCOCC2)C3)cc(C(=O)NCc2c(C)cc(C)[nH]c2=O)c1C)C1CCOCC1 [Example 78, N-((4,6-dimethyl-2-oxo-1,2-dihydropyridin-3-yl)methyl)-3-(ethyl(tetrahydro-2H-pyran-4-yl)amino)-2-methyl-5-(1-oxo-1,2′,3,3′,5′,6′-hexahydrospiro[indene-2,4′-pyran]-6-yl)benzamide]
0.21 nM | 2.91 nM | 2.48 nM | 0.87 nM |  |  |  |  |  |  |  | CCN(c1cc(-c2ccc3c(c2)NC(=O)C32CCOCC2)cc(C(=O)NCc2c(OC)cc(C)[nH]c2=O)c1C)C1CCC(N(C)C2COC2)CC1 (stereo not shown) [Example 122, 3-(Ethyl(4-(methyl(oxetan-3-yl)amino)cyclohexyl)amino)-N-((4-methoxy-6-methyl-2-oxo-1,2-dihydropyridin-3-yl)methyl)-2-methyl-5-(2-oxo-2′,3′,5′,6′-tetrahydrospiro[dihydroindole-3,4′-pyran]-6-yl)benzamide]
